Holding throughout (type): ADME, organism-based
Common to all, as to conditions: in vivo

Data set [1] in a line: Clearance in Sprague-Dawley rat at 1 mg/kg, iv.
The nature of data set [2]: Tmax in Sprague-Dawley rat at 3 mg/kg, po.
Data set [3] is described as follows: Half life in Sprague-Dawley rat at 1 mg/kg, iv.
Data set [4] in a line: AUC (0 to infinity) in Sprague-Dawley rat at 3 mg/kg, po. Further details: dose 3 mg/kg, time infinity, route oral.
A short description of data set [5]: Cmax in Sprague-Dawley rat at 3 mg/kg, po. Details: dose 3 mg/kg, route oral.
Data set [6] can be described thus: AUC (0 to infinity) in Sprague-Dawley rat at 1 mg/kg, iv. Further details: dose 1 mg/kg, route intravenous, time infinity.
Data set [7] in a line: Oral bioavailability in Sprague-Dawley rat at 3 mg/kg.

SMILES strings stand for the structures.

In the case of `CCc1nc(C(N)=O)c(Nc2ccc3c(c2)CCN(C2CCCC2)CC3)nc1NC1CCOCC1`, in data set [1], the clearance came to 93.2 mL/min/kg. In addition, the Tmax in data set [2] amounted to 4 h. Further, in data set [3], the half-life was 127 min. Besides, the AUC(0-inf) in data set [4] was 199 ng·h/mL; in data set [6], 179 ng·h/mL. In data set [5], this compound came in with a maximum concentration (Cmax) of 23.8 ng/mL. In data set [7], this compound yielded a bioavailability of 24.8%.

The clearance is the rate of elimination divided by the concentration. The low end stands for inefficient removal, the high end for efficient removal. What is called Tmax is the time at which the peak concentration occurs. Broadly, the half-life is the time needed for the level to fall by half in the phase considered. Lower therefore signals rapid decline. One may read the AUC(0-inf) as total exposure, with the tail of the curve extrapolated. A low value points to less exposure. In general, Cmax refers to the highest concentration seen after dosing. As usually defined, the bioavailability is dose-corrected exposure relative to a reference, in per cent.

Values taken from ChEMBL document CHEMBL4422653, “Discovery of a potent tyrosine kinase AXL inhibitor bearing the 3-((2,3,4,5-tetrahydro-1H-benzo[d]azepin-7-yl)amino)pyrazine core” (Bioorg Med Chem Lett, 2019).
